{
  "source": "PubChem BioAssay AID623907",
  "about": "(NMMLSC, 2012)",
  "tested_on": "mouse and human plasma stability, LC/MS/MS, 180 min",
  "experiment": "plasma degradation of screening hits, two species – biochemical, mouse and human plasma, ADME assay for GPR30 and estrogen receptor ligands, late-stage follow-up (AID 623907)",
  "details": "at 1 µM, stronger effect = higher value",
  "data": [
    {"smiles": "COc1cc([N+](=O)[O-])cc2c1NC(C1CC=CCC1)C1CC=CC21", "note": "(configuration not stated)", "values": [
      {"measurement": "percent remaining", "result": 94.5, "unit": "%"},
      {"measurement": "percent remaining", "setting": "measured here: human plasma stability, 180 min", "result": 100, "unit": "%"}
    ]}
  ]
}
